This passage reports IC50 and GI50 results from US12122787B2, “Fused pyridone compound, and preparation method therefor and use thereof” (SHANGHAI JEMINCARE PHARMACEUTICALS CO., LTD, priority 2019, dated 2024).

Common to all, as to format: cell-based
For assay [1], the system named is phosphorylated ERK (Thr202/Tyr204) in NCI-H358 cells expressing mutant RAS(G12C). Briefly: Inhibition of RAS-mediated signal transduction: phosphorylated ERK ELISA in NCI-H358 cells. The settings on record: NCI-H358 cells, 2 hours of treatment, pERK normalized by Janus Green B, read-out: p-ERK IC50 (NCI H358). For orientation: An ELISA detects its analyte on a solid surface through an enzyme-linked reagent.

For assay [2], the system named is NCI-H358 cells expressing KRAS-G12C. As to the kind of experiment: Growth inhibition of tumor cell line expressing KRAS-G12C (Cell Titer Glo), NCI-H358. The protocol:
(§1) The ability of the compounds of the present disclosure to inhibit the growth of cells expressing KRAS-G12C was evaluated by measuring the cell viability and calculating the GI50 values.
(§2) The tumor cell line NCI-H358 (ATCC catalogue number CRL-5807) expressing KRAS-G12C was cultured in RPMI medium supplemented with 10% fetal bovine serum and penicillin/streptomycin, and the tumor cell line MIA PaCa2 (ATCC CRL-1420) expressing KRAS-G12C was cultured in DMEM medium supplemented with 10% fetal bovine serum, 2.5% horse serum, and penicillin/streptomycin.
(§3) Cells NCI-H358 and MIA-Paca2 were inoculated into black transparent bottom 384-well plate (PerkinElmer catalogue number 6007460) with cell density of 1000 and 800 respectively, and the cells were allowed to adhere to the wall overnight (8-12 hours). After the cells adhered to the wall, the experimental group was added with the compound of the present disclosure diluted 5 times the concentration of the working solution (final concentration containing 0.1% dimethyl sulfoxide, i.e. DMSO); the control group was added with the same dilution as the experimental group (final concentration containing 0.1% DMSO). After 72 hours, Cell Titer Glo reagent (Promega catalogue number G7572) was used to detect ATP content according to the instruction method to determine the amount of cell proliferation. The brief operation steps were as follows: the cell plate was taken out and kept at normal temperature for equilibrium for 30 minutes; Cell Titer Glo reagent with the same volume as the culture was added; the culture plate was placed on a shaker for shaking and cracking for 2 minutes; the culture plate was left to stand at room temperature for 10 minutes; then the light signal value was read by microplate reader EnVision (PerkinElmer).
(§4) Data from all experimental groups were used to calculate the respective percent inhibition using the DMSO group, and the GI50 was calculated using the data processing software GraphPad to analyze the inhibition rates produced by the 9 compound dose concentrations diluted at ⅓-fold ratio.

The test system of assay [3] is MIA PaCa2 cells expressing KRAS-G12C. As to the kind of experiment: Growth inhibition of tumor cell line expressing KRAS-G12C (Cell Titer Glo), MIA PaCa2. The settings on record: MIA-Paca2, 72 hours. The protocol:
as §1, §2, §3, §4
Background: ATP-based viability assays read luminescence as a measure of living cells.

pIC50: −log10 of the molar value. Read-outs that look alike come from different tables or passages of the source.

Take `C=CC(=O)N1C[C@@H]2C(=O)N(CCCO)c3c(c4cc(F)c(-c5c(O)cccc5F)c(F)c4n(-c4c(C)ccnc4C(C)C)c3=O)N2C[C@H]1C` [Compound 41A]: the negative-log IC50 (pIC50) (commonly the IC50 on a negative log10 scale, so that one unit is a factor of ten) in assay [1] (Homo sapiens, NCI-H358, 2 h) was 6.03. For the same molecule, the GI50 (in general, the concentration giving 50% growth inhibition) in assay [2] (Homo sapiens, NCI-H358, 72 h) came to 0.53 µM; in assay [3] (Homo sapiens, MIA PaCa-2, 72 h) it was 2.23 µM.

With `C=CC(=O)N1C[C@@H]2C(=O)N(CCN(C)C)c3c(c4cc(Cl)c(-c5c(O)cccc5F)c(F)c4n(-c4c(C)ccnc4C(C)C)c3=O)N2C[C@H]1C` (atropisomer, axis not shown) [Compound 26A], in assay [1] (Homo sapiens, NCI-H358, 2 h), the negative logarithm of the IC50 (pIC50) was 6.69. Also, the GI50 in assay [2] (Homo sapiens, NCI-H358, 72 h) is 0.152 µM; in assay [3] (Homo sapiens, MIA PaCa-2, 72 h) it was 0.724 µM.

For `C=CC(=O)N1C[C@@H]2CN(C)c3c(c4cc(F)c(-c5c(O)cccc5F)c(F)c4n(-c4c(C)ccnc4C(C)C)c3=O)N2C[C@H]1C` (atropisomer, axis not shown) [Compound 16A-1], the pIC50 in assay [1] was 7.96. The concentration for 50% growth inhibition (GI50) in assay [2] (Homo sapiens, NCI-H358, 72 h) came to 0.012 µM; in assay [3] (Homo sapiens, MIA PaCa-2, 72 h), 0.055 µM.

With `C=CC(=O)N1C[C@@H]2C(=O)N(CCO)c3c(c4cc(F)c(-c5c(O)cccc5F)c(F)c4n(-c4c(C)ccnc4C(C)C)c3=O)N2C[C@H]1C` [Compound 40A], the negative logarithm of the IC50 (pIC50) in assay [1] (Homo sapiens, NCI-H358, 2 h) was 7.28. Further, the GI50 in assay [2] (Homo sapiens, NCI-H358, 72 h) came to 0.062 µM; in assay [3] (Homo sapiens, MIA PaCa-2, 72 h), 0.056 µM.

In the case of `C=CC(=O)N1C[C@@H]2CN(CCC(C)O)c3c(c4cc(F)c(-c5c(O)cccc5F)c(F)c4n(-c4c(C)ccnc4C(C)C)c3=O)N2C[C@H]1C` (stereo partly drawn) [Compound 37A], the pIC50 in assay [1] (Homo sapiens, NCI-H358, 2 h) was 7.15. In addition, the concentration for 50% growth inhibition (GI50) in assay [2] (Homo sapiens, NCI-H358, 72 h) is 0.066 µM; in assay [3] (Homo sapiens, MIA PaCa-2, 72 h) it was 0.392 µM.

For the molecule `C=CC(=O)N1C[C@@H]2CN(C)c3c(c4cc(F)c(-c5c(O)cccc5F)c(F)c4n(-c4c(C)ccnc4C(C)C)c3=O)N2C[C@H]1C` (single isomer, unassigned) [Compound 16A-2], the pIC50 in assay [1] is 7.08. Moreover, the concentration for 50% growth inhibition (GI50) came out at 0.074 µM in assay [2] (NCI-H358, 72 hours) and 0.146 µM in assay [3].

As to `C=CC(=O)N1C[C@@H]2C(=O)N(C)c3c(c4cc(Cl)c(-c5c(O)cccc5F)c(F)c4n(-c4c(C)ncnc4C(C)C)c3=O)N2C[C@H]1C` [Compound 49A], in assay [1] (Homo sapiens, NCI-H358, 2 h), the pIC50 is 8.40. The concentration for 50% growth inhibition (GI50) worked out at 0.004 µM in assay [2] (Homo sapiens, NCI-H358, 72 h) and 0.009 µM in assay [3] (Homo sapiens, MIA PaCa-2, 72 h).

Take `C=CC(=O)N1C[C@@H]2COc3c(c4cc(Cl)c(-c5c(O)cccc5F)c(F)c4n(C)c3=O)N2C[C@H]1C` [Compound 4A]: the pIC50 in assay [1] (Homo sapiens, NCI-H358, 2 h) is 6.80. Also, the GI50 is 0.523 µM in assay [2] (Homo sapiens, NCI-H358, 72 h) and 2.41 µM in assay [3] (Homo sapiens, MIA PaCa-2, 72 h).

For `C=CC(=O)N1C[C@@H]2C(=O)N(C)c3c(c4cc(Cl)c(-c5c(O)cccc5F)c(F)c4n(-c4c(C)ccnc4C(C)C)c3=O)N2C[C@H]1C` [Compound 23A-2], in assay [1], the negative logarithm of the IC50 (pIC50) is 8.52. Besides, the GI50 was found to be 0.003 µM in assay [2] (NCI-H358, 72 hours) and 0.014 µM in assay [3].

As for `C=CC(=O)N1C[C@@H]2C(=O)N(C)c3c(c4cc(Cl)c(-c5c(O)cccc5F)c(F)c4n(-c4c(C)ccnc4C(C)C)c3=O)N2C[C@H]1C` [Compound 23A-1], the pIC50 in assay [1] (Homo sapiens, NCI-H358, 2 h) was 6.95. Also, the concentration for 50% growth inhibition (GI50) was determined as 0.104 µM in assay [2] (Homo sapiens, NCI-H358, 72 h) and 0.281 µM in assay [3] (Homo sapiens, MIA PaCa-2, 72 h).

For `C=CC(=O)N1C[C@@H]2C(=O)N(CCN(C)C)c3c(c4cc(Cl)c(-c5c(O)cccc5F)c(F)c4n(-c4c(C)ccnc4C(C)C)c3=O)N2C[C@H]1C` (atropisomer, axis not shown) [Compound 26D], in assay [1], the negative-log IC50 (pIC50) is 7.17. For the same molecule, the GI50 in assay [2] (NCI-H358, 72 hours) is 0.082 µM; in assay [3] it was 0.079 µM.
